# Data as given in PubChem BioAssay AID1963841 (Molecular Pharmacology Branch, DTP, NCI, 2024).
# Tested on: 439559-082-T-J2-PDC spheroid viability
# Assay: Anticancer human tumor 439559-082-T-J2-PDC patient-derived colon adenocarcinoma cell line growth inhibition [POLQ]
# Details: spheroids with HUVEC and MSC; for IC50: curve of first compound; for viability, T/C: stronger effect = lower value
# Outline: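 PDC + HUVEC + MSC complex spheroids; POLQ inhibitors ± partner drugs; top conc. at/near clinical Cmax, else 10 microM (SN-38 1 microM), half-log dilutions; 37 degrees C, 5% CO2.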
# [1] = second compound 0.0316 µM, first compound 0.0316 µM
# [2] = second compound 0.0316 µM, first compound 0.1 µM
# [3] = second compound 0.0316 µM, first compound 0.316 µM
# [4] = second compound 0.0316 µM, first compound 1 µM
# [5] = second compound 0.0316 µM, first compound 3.16 µM
# [6] = second compound 0.0316 µM, first compound 10 µM
# [7] = second compound 0.1 µM, first compound 0.0316 µM
# [8] = second compound 0.1 µM, first compound 0.1 µM
# [9] = second compound 0.1 µM, first compound 0.316 µM
# [10] = second compound 0.1 µM, first compound 1 µM
# [11] = second compound 0.1 µM, first compound 3.16 µM
# [12] = second compound 0.1 µM, first compound 10 µM
# [13] = second compound 0.316 µM, first compound 0.0316 µM
# [14] = second compound 0.316 µM, first compound 0.1 µM
# [15] = second compound 0.316 µM, first compound 0.316 µM
# [16] = second compound 0.316 µM, first compound 1 µM
# [17] = second compound 0.316 µM, first compound 3.16 µM
# [18] = second compound 0.316 µM, first compound 10 µM
# [19] = second compound 1 µM, first compound 0.0316 µM
# [20] = second compound 1 µM, first compound 0.1 µM
# [21] = second compound 1 µM, first compound 0.316 µM
# [22] = second compound 1 µM, first compound 1 µM
# [23] = second compound 1 µM, first compound 3.16 µM
# [24] = second compound 1 µM, first compound 10 µM
# [25] = second compound 3.16 µM, first compound 0.0316 µM
# [26] = second compound 3.16 µM, first compound 0.1 µM
# [27] = second compound 3.16 µM, first compound 0.316 µM
# [28] = second compound 3.16 µM, first compound 1 µM
# [29] = second compound 3.16 µM, first compound 3.16 µM
# [30] = second compound 3.16 µM, first compound 10 µM
# [31] = second compound 10 µM, first compound 0.0316 µM
# [32] = second compound 10 µM, first compound 0.1 µM
# [33] = second compound 10 µM, first compound 0.316 µM
# [34] = second compound 10 µM, first compound 1 µM
# [35] = second compound 10 µM, first compound 3.16 µM
# [36] = second compound 10 µM, first compound 10 µM
# 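Note: spheroids exposed to compounds for seven days before readout.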
# 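Throughout, for viability, T/C: 100% = DMSO vehicle control viability.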
compound,measurement,setting,value
CC(=O)O[C@H]1C(=O)[C@@]2(C)[C@H]([C@H](OC(=O)c3ccccc3)[C@]3(O)C[C@H](OC(=O)[C@H](O)[C@@H](NC(=O)c4ccccc4)c4ccccc4)C(C)=C1C3(C)C)[C@]1(OC(C)=O)CO[C@@H]1C[C@@H]2O + Cc1cccc(N(C)C(=O)C2C(O)CCN2c2nc(C)cc(C(F)(F)F)c2C#N)c1,IC50,second compound 0.0316 µM,2.19 µM
same,IC50,second compound 0.1 µM,1.78 µM
same,IC50,second compound 0.316 µM,1.9 µM
same,IC50,second compound 1 µM,1.71 µM
same,IC50,second compound 3.16 µM,1.43 µM
same,IC50,second compound 10 µM,0.469 µM
same,"viability, T/C","second compound 0.0316 µM, first compound 0.00949 µM",77.2%
same,"viability, T/C","second compound 0.0316 µM, first compound 0.03 µM",78.5%
same,"viability, T/C","second compound 0.0316 µM, first compound 0.0949 µM",84.2%
same,"viability, T/C","second compound 0.0316 µM, first compound 0.3 µM",81.3%
same,"viability, T/C","second compound 0.0316 µM, first compound 0.949 µM",70.5%
same,"viability, T/C","second compound 0.0316 µM, first compound 3 µM",41.5%
same,"viability, T/C","second compound 0.1 µM, first compound 0.00949 µM",81.9%
same,"viability, T/C","second compound 0.1 µM, first compound 0.03 µM",84.4%
same,"viability, T/C","second compound 0.1 µM, first compound 0.0949 µM",77.4%
same,"viability, T/C","second compound 0.1 µM, first compound 0.3 µM",72.7%
same,"viability, T/C","second compound 0.1 µM, first compound 0.949 µM",66.4%
same,"viability, T/C","second compound 0.1 µM, first compound 3 µM",37.8%
same,"viability, T/C","second compound 0.316 µM, first compound 0.00949 µM",85.4%
same,"viability, T/C","second compound 0.316 µM, first compound 0.03 µM",86.6%
same,"viability, T/C","second compound 0.316 µM, first compound 0.0949 µM",78.5%
same,"viability, T/C","second compound 0.316 µM, first compound 0.3 µM",74.6%
same,"viability, T/C","second compound 0.316 µM, first compound 0.949 µM",61%
same,"viability, T/C","second compound 0.316 µM, first compound 3 µM",42.6%
same,"viability, T/C","second compound 1 µM, first compound 0.00949 µM",92%
same,"viability, T/C","second compound 1 µM, first compound 0.03 µM",82%
same,"viability, T/C","second compound 1 µM, first compound 0.0949 µM",79.4%
same,"viability, T/C","second compound 1 µM, first compound 0.3 µM",75.2%
same,"viability, T/C","second compound 1 µM, first compound 0.949 µM",65.2%
same,"viability, T/C","second compound 1 µM, first compound 3 µM",36.9%
same,"viability, T/C","second compound 3.16 µM, first compound 0.00949 µM",77.1%
same,"viability, T/C","second compound 3.16 µM, first compound 0.03 µM",71.5%
same,"viability, T/C","second compound 3.16 µM, first compound 0.0949 µM",74.1%
same,"viability, T/C","second compound 3.16 µM, first compound 0.3 µM",70.4%
same,"viability, T/C","second compound 3.16 µM, first compound 0.949 µM",55%
same,"viability, T/C","second compound 3.16 µM, first compound 3 µM",37.4%
same,"viability, T/C","second compound 10 µM, first compound 0.00949 µM",85.1%
same,"viability, T/C","second compound 10 µM, first compound 0.03 µM",74.2%
same,"viability, T/C","second compound 10 µM, first compound 0.0949 µM",74.4%
same,"viability, T/C","second compound 10 µM, first compound 0.3 µM",51.9%
same,"viability, T/C","second compound 10 µM, first compound 0.949 µM",44.4%
same,"viability, T/C","second compound 10 µM, first compound 3 µM",36.8%
COc1cc(C2c3cc4c(cc3C(OC3OC5COC(C)OC5C(O)C3O)C3COC(=O)C23)OCO4)cc(OC)c1O (stereo unspecified) + Cc1cccc(N(C)C(=O)C2C(O)CCN2c2nc(C)cc(C(F)(F)F)c2C#N)c1,IC50,second compound 0.0316 µM,> 10 µM
same,IC50,second compound 0.1 µM,> 10 µM
same,IC50,second compound 0.316 µM,> 10 µM
same,IC50,second compound 1 µM,> 10 µM
same,IC50,second compound 3.16 µM,> 10 µM
same,IC50,second compound 10 µM,> 10 µM
same,"viability, T/C",[1],90.7%
same,"viability, T/C",[2],99.6%
same,"viability, T/C",[3],95.6%
same,"viability, T/C",[4],95.3%
same,"viability, T/C",[5],76.8%
same,"viability, T/C",[6],68.8%
same,"viability, T/C",[7],103%
same,"viability, T/C",[8],101%
same,"viability, T/C",[9],98.1%
same,"viability, T/C",[10],89.8%
same,"viability, T/C",[11],83.4%
same,"viability, T/C",[12],79.1%
same,"viability, T/C",[13],96.9%
same,"viability, T/C",[14],92.4%
same,"viability, T/C",[15],95.2%
same,"viability, T/C",[16],88.2%
same,"viability, T/C",[17],82.1%
same,"viability, T/C",[18],69.1%
same,"viability, T/C",[19],108%
same,"viability, T/C",[20],90.8%
same,"viability, T/C",[21],93.5%
same,"viability, T/C",[22],90.4%
same,"viability, T/C",[23],84.2%
same,"viability, T/C",[24],73.4%
same,"viability, T/C",[25],90.9%
same,"viability, T/C",[26],102%
same,"viability, T/C",[27],90.8%
same,"viability, T/C",[28],83.3%
same,"viability, T/C",[29],82.1%
same,"viability, T/C",[30],70.6%
same,"viability, T/C",[31],92.4%
same,"viability, T/C",[32],82.5%
same,"viability, T/C",[33],95.4%
same,"viability, T/C",[34],86.8%
same,"viability, T/C",[35],71%
same,"viability, T/C",[36],59.9%
O=c1[nH]cc(F)c(=O)[nH]1 + Cc1cccc(N(C)C(=O)C2C(O)CCN2c2nc(C)cc(C(F)(F)F)c2C#N)c1,IC50,second compound 0.0316 µM,> 10 µM
same,IC50,second compound 0.1 µM,> 10 µM
same,IC50,second compound 0.316 µM,> 10 µM
same,IC50,second compound 1 µM,> 10 µM
same,IC50,second compound 3.16 µM,> 10 µM
same,IC50,second compound 10 µM,> 10 µM
same,"viability, T/C",[1],102%
same,"viability, T/C",[2],93.3%
same,"viability, T/C",[3],82.2%
same,"viability, T/C",[4],78.3%
same,"viability, T/C",[5],71.9%
same,"viability, T/C",[6],66.7%
same,"viability, T/C",[7],106%
same,"viability, T/C",[8],91.4%
same,"viability, T/C",[9],80.8%
same,"viability, T/C",[10],76.6%
same,"viability, T/C",[11],73.4%
same,"viability, T/C",[12],70%
same,"viability, T/C",[13],104%
same,"viability, T/C",[14],97.4%
same,"viability, T/C",[15],84.6%
same,"viability, T/C",[16],75.1%
same,"viability, T/C",[17],73.1%
same,"viability, T/C",[18],68.8%
same,"viability, T/C",[19],97.5%
same,"viability, T/C",[20],94.4%
same,"viability, T/C",[21],84.3%
same,"viability, T/C",[22],73.7%
same,"viability, T/C",[23],76.7%
same,"viability, T/C",[24],71%
same,"viability, T/C",[25],93.1%
same,"viability, T/C",[26],94%
same,"viability, T/C",[27],84.5%
same,"viability, T/C",[28],72%
same,"viability, T/C",[29],71%
same,"viability, T/C",[30],68%
same,"viability, T/C",[31],91.8%
same,"viability, T/C",[32],83.3%
same,"viability, T/C",[33],78.7%
same,"viability, T/C",[34],70.8%
same,"viability, T/C",[35],71%
same,"viability, T/C",[36],64%
